Values of other authors in patent US4220795A, “Cyclobutyl substituted derivatives of prostaglandin analogs” (Miles Laboratories, Inc., priority 1978, dated 1980).
“Also recorded” adds a separate entry of the source.

Legend:
[1] = test system: human platelet aggregation (collagen-induced, platelet rich plasma); details: compared with compounds of Formula III; cited from earlier work
[2] = test system: smooth muscle of the vas deferens; details: mammalian male reproductive system; cited from earlier work
[3] = test system: female reproductive system; details: cited from earlier work

## CCCCC[C@H](O)/C=C/[C@H]1[C@H](O)CC(=O)[C@@H]1CCCCCCC(=O)O [PGE1]
[1]
  inhibition of platelet aggregation, natural prostaglandins, in words: displays a similar activity
[2]
  contraction of the vas deferens: contracts the smooth muscle of the vas deferens

## CCCCC[C@H](O)/C=C/[C@@H]1[C@@H](C/C=C\CCCC(=O)O)[C@@H](O)C[C@H]1O [PGF2]
[3]
  effects on uterus, fertility, gestation and labor: exerts potent oxytocic effects in inducing labor

## CCCCC[C@H](O)/C=C/[C@@H]1[C@@H](C/C=C\CCCC(=O)O)[C@@H](O)C[C@H]1O [PGF2α]
[3]
  effects on uterus, fertility, gestation and labor: has contragestational effects; also recorded: induces spontaneous abortions in early pregnancy
